The results in this text go back to US20250290928A1, “METHOD, KIT AND DEVICE FOR DETECTING EXTRACELLULAR VESICLES” (priority 2022, published 2025).

Primed or numbered codes have the meaning given here. *: point of attachment. Dabcyl′ = 4-((4-(dimethylamino)phenyl)azo)benzoic acid, CN(C)c1ccc(/N=N/c2ccc(C(=O)*)cc2)cc1; 5FAM = O=C1OC2(c3ccc(O)cc3Oc3cc(O)ccc32)c2ccc(C(=O)*)cc21

Common to all, as to assay type: biochemical, Human
Experiment [1] deals with ADAM in the MDA-MB-231-derived extracellular vesicles. Description: Digital detection of MDA-MB-231-derived extracellular vesicles through ADAM activity in wells. The conditions noted are these: for Extracellular vesicle concentration: at a concentration of x1, 50 fL; for Expected value λ / Number of positives / Positive ratio: Example 40, EV 2 μg/mL, reporter 5 μM, 30° C. As for the experimental part: The concentration of the solution is 4 μg/mL.
50 μL of the ADAM or Cathepsin D detection solution was added to 50 μL of the sample to provide a reaction solution for wells.

Experiment [2] has the same test system. Description: Detection of ADAM activity of MDA-MB-231-derived extracellular vesicles with 96-well plate. The conditions noted are these: Example 39, EV 3.3 μg/mL, reporter 5 μM, buffer (4). The procedure: (§1) The MMP14 activity was evaluated with a 96-well plate (manufactured by Thermo Fisher Scientific Inc., model number: 137101). A fluorescence intensity was measured with a fluorescence plate reader (Synergy MX, manufactured by BioTek Instruments, Inc.) at […] every 5 min for 1 hour. For measurement wavelengths, an excitation wavelength of 485±20 nm and a fluorescence wavelength of 528±20 nm were used.
In addition, for detection of ADAM activity, 1 mM EPDAB010 or PEPDAB014 was diluted with the buffer (4) to prepare a 10 μM ADAM detection solution. In addition, for detection of Cathepsin D activity, 1 mM CathD was diluted with the buffer (4) to prepare a 10 μM Cathepsin D detection solution.
50 μL of the ADAM detection solution or the Cathepsin D detection solution was added to 50 μL of each of the samples, a reaction was performed at 30° C., and activity was evaluated.

Experiment [3] has as its system MMP in the A549-derived extracellular vesicles. Description: Digital detection of A549-derived extracellular vesicles through MMP activity in wells (SB substrates). The conditions noted are these: for Extracellular vesicle concentration: at a concentration of x1, 50 fL; for Expected value λ / Number of positives / Positive ratio: Example 36, EV 5 μg/mL, reporter 5 μM, 30° C. The procedure: The concentration of the solution is 10 μg/mL.
50 μL of each of the MMP detection solutions was added to 50 μL of the sample to provide a reaction solution for wells.

In experiment [4] the test system is MMP in the MDA-MB-231-derived extracellular vesicles. Put plainly: Evaluation of MMP activity of MDA-MB-231-derived extracellular vesicles with 96-well plate (SensoLyte 520 MMP Substrate Sampler Kit). The conditions noted are these: for Fluorescence change after 1 hour of reaction at 30° C.: Example 34, EV 4 μg/mL, reporter 5 μM, buffer (4); for Fluorescence change after 2 hours of reaction at 30° C.: MP, EV 3.3 μg/mL. As for the experimental part: (§2) 50 μL of the MMP detection solution was added to 50 μL of each of the samples, a reaction was performed at 30° C., and MMP activity was evaluated.
(§3) 50 μL of each of the MMP detection solutions was added to 50 μL of each of the samples, a reaction was performed at 30° C., and MMP activity was evaluated.

For experiment [5] the test system is unchanged. Put plainly: Digital detection of MDA-MB-231-derived extracellular vesicles through MMP activity in wells (SB substrates). The conditions noted are these: for Expected value λ / Number of positives / Positive ratio: 6 h; for Extracellular vesicle concentration / Expected value λ (×1): Example 35, 6 h; for Extracellular vesicle concentration: at a concentration of x1, 50 fL; for Expected value λ (×1): from power approximation equation. The procedure: The concentration of the solution is 10 μg/mL. […] The solution was further diluted 2-fold to prepare a standard sample at a concentration of x1/4, further diluted 3-fold to prepare a standard sample at a concentration of x1/12, and further diluted 3-fold to prepare a standard sample at a concentration of x1/36. Thus, the standard samples with four concentrations were prepared.
In addition, 1 mM Alexa Fluor 647 was used as a standard fluorescent substance, and each of the MMP14 detection solutions contained the standard fluorescent substance at a final concentration of 2 μM.
as §3

Experiment [6] relates to MMP in the A549-derived extracellular vesicles. Put plainly: Evaluation of MMP activity of A549-derived extracellular vesicles with 96-well plate (SensoLyte 520 MMP Substrate Sampler Kit). The conditions noted are these: Example 34, EV 4 μg/mL, reporter 5 μM, buffer (4). The procedure: as §1, §2
Setting [7] is: 1.25 μM with 1.25 μM Custom #2T.
Where [8] appears, read: Example 35, 30° C., EV 0 (free of extracellular vesicles, pseudopositive).
Where [9] appears, read: Example 35, 30° C., EV 1/4 a.u.
Setting [10] is: Example 35, 30° C., EV 1/12 a.u.
Where [11] appears, read: Example 35, 30° C., EV 1/36 a.u.
The mark [12] stands for this setting: Example 35, reporter 5 μM, 30° C., EV 1/2 a.u. (5 μg/mL in reaction solution).

In the case of “Dabcyl-EHADLLAVVAK (5FAM)-NH2 ({Dabcyl′}-EHADLLAVVAK(5FAM)-NH2; SMILES CC(C)C[C@H](NC(=O)[C@H](CC(C)C)NC(=O)[C@H](CC(=O)O)NC(=O)[C@H](C)NC(=O)[C@H](Cc1c[nH]cn1)NC(=O)[C@H](CCC(=O)O)NC(=O)c1ccc(/N=N/c2ccc(N(C)C)cc2)cc1)C(=O)N[C@@H](C)C(=O)N[C@H](C(=O)N[C@H](C(=O)N[C@@H](C)C(=O)N[C@@H](CCCCNC(=O)c1ccc2c(c1)C(=O)OC21c2ccc(O)cc2Oc2cc(O)ccc21)C(N)=O)C(C)C)C(C)C) [PEPDAB014]”, in experiment [1] (Example 40, 4 hr), the “Expected value λ (×1)” value was 0.2813 and the Extracellular vesicle concentration was found to be 5.625e+09 mL⁻¹. In addition, in experiment [1] (Example 40, 24 hr), the “Expected value λ (×1)” value came out at 0.4087 and the Extracellular vesicle concentration came out at 8.174e+09 mL⁻¹. In addition, in experiment [1] (4 hr), the “Expected value λ” value was determined as 0.05625, the Number of positives is 1,536 and the Positive ratio is on record as 0.0547. Besides, in experiment [1] (24 hr), the “Expected value λ” value was determined as 0.08174, the Number of positives was 2,204 and the Positive ratio was 0.07849. Besides, in experiment [2], the “Fluorescence change after 2 hours of reaction at 30° C.” value (shortened to “Fluorescence change after 2 hours”) was 6,939 ΔRFU.

Regarding “QXL520-Pro-Leu-Ala-Leu-Trp-Ala-Arg-Lys(5-FAM)-NH2 (QXL520-PLALWARK(5FAM)-NH2) [SB2]”, the “Expected value λ (×1)” value in experiment [3] (Example 36, 4 hr) amounted to 0.1343; in experiment [3] (Example 36, 24 hr), 0.00799; in experiment [5], 2.6406. The Extracellular vesicle concentration in experiment [3] (Example 36, 4 hr) came to 2.685e+09 mL⁻¹; in experiment [3] (Example 36, 24 hr) it was 1.599e+08 mL⁻¹; in experiment [5] it was 5.3e+10 mL⁻¹. Also, the “Expected value λ” value was 0.06712 in experiment [3] (4 hr); 0.004 in experiment [3] (24 hr); 3.56E−05 in experiment [5] (setting [8]); 0.3545 in experiment [5] (setting [9]); 0.1011 in experiment [5] (setting [10]); 0.02931 in experiment [5] (setting [11]). The “Expected value λ” value in experiment [5] (setting [12]) is 1.326. The Number of positives in experiment [3] (4 hr) is given as 1,823; in experiment [3] (24 hr), 112; in experiment [5] (setting [8]) it was 1; in experiment [5] (setting [9]), 8,382; in experiment [5] (setting [10]) it was 2,699; in experiment [5] (setting [11]), 811. In addition, in experiment [5] (setting [12]), the Number of positives is on record as 20,623. Further, the Positive ratio is reported as 0.06492 in experiment [3] (4 hr); 0.00399 in experiment [3] (24 hr); 3.56E−05 in experiment [5] (setting [8]); 0.2985 in experiment [5] (setting [9]); 0.09612 in experiment [5] (setting [10]); 0.02888 in experiment [5] (setting [11]). For the same substance, in experiment [5] (setting [12]), the Positive ratio is listed as 0.7344. For the same substance, the “Fluorescence change after 1 hour of reaction at 30° C.” value in experiment [4] is recorded as 32,088 ΔRFU; in experiment [6], 1,154 ΔRFU. The “Fluorescence change after 2 hours” value in experiment [4] (setting [7]) was 21,733 ΔRFU; in experiment [4] (5 μM with 5 μM Custom #2T), 31,832 ΔRFU.

With “QXL520-Pro-Leu-Gly-Met-Trp-Ser-Arg-Lys(5-FAM)-NH2 (QXL520-PLGMWSRK(5FAM)-NH2) [SB6]”, the “Expected value λ (×1)” value came out at 0.141 in experiment [3] (Example 36, 4 hr); 0.09817 in experiment [3] (Example 36, 24 hr); 2.1589 in experiment [5]. The Extracellular vesicle concentration was 2.819e+09 mL⁻¹ in experiment [3] (Example 36, 4 hr); 1.963e+09 mL⁻¹ in experiment [3] (Example 36, 24 hr); 4.3e+10 mL⁻¹ in experiment [5]. The “Expected value λ” value is listed as 0.07048 in experiment [3] (4 hr); 0.04908 in experiment [3] (24 hr); 3.57E−05 in experiment [5] (setting [8]); 0.5449 in experiment [5] (setting [9]); 0.09454 in experiment [5] (setting [10]); 0.04778 in experiment [5] (setting [11]). In experiment [5] (setting [12]), the “Expected value λ” value is 1.006. For the same substance, the Number of positives is reported as 1,911 in experiment [3] (4 hr); 1,345 in experiment [3] (24 hr); 1 in experiment [5] (setting [8]); 11,797 in experiment [5] (setting [9]); 2,533 in experiment [5] (setting [10]); 1,310 in experiment [5] (setting [11]). In experiment [5] (setting [12]), the Number of positives was 17,761. Besides, the Positive ratio in experiment [3] (4 hr) is listed as 0.06806; in experiment [3] (24 hr) it was 0.0479; in experiment [5] (setting [8]), 3.57E−05; in experiment [5] (setting [9]), 0.4201; in experiment [5] (setting [10]), 0.09021; in experiment [5] (setting [11]), 0.04665. Further, the Positive ratio in experiment [5] (setting [12]) was determined as 0.6343. The “Fluorescence change after 1 hour of reaction at 30° C.” value in experiment [4] is 52,130 ΔRFU; in experiment [6], 2,043 ΔRFU. The “Fluorescence change after 2 hours” value in experiment [4] (setting [7]) was 37,893 ΔRFU; in experiment [4] (5 μM with 5 μM Custom #2T), 57,158 ΔRFU.

On to “Dabcyl-SPLAQAVRSSK (5FAM)-NH2 ({Dabcyl′}-SPLAQAVRSSK(5FAM)-NH2; SMILES CC(C)C[C@H](NC(=O)[C@@H]1CCCN1C(=O)[C@H](CO)NC(=O)c1ccc(/N=N/c2ccc(N(C)C)cc2)cc1)C(=O)N[C@@H](C)C(=O)N[C@@H](CCC(N)=O)C(=O)N[C@@H](C)C(=O)N[C@H](C(=O)N[C@@H](CCCNC(=N)N)C(=O)N[C@@H](CO)C(=O)N[C@@H](CO)C(=O)N[C@@H](CCCCNC(=O)c1ccc2c(c1)C(=O)OC21c2ccc(O)cc2Oc2cc(O)ccc21)C(N)=O)C(C)C) [PEPDAB010]”, for which, in experiment [1] (Example 40, 4 hr), the “Expected value λ (×1)” value turned out to be 0.4984 and the Extracellular vesicle concentration was 9.968e+09 mL⁻¹. In experiment [1] (Example 40, 24 hr), the “Expected value λ (×1)” value worked out at 0.8509 and the Extracellular vesicle concentration turned out to be 1.702e+10 mL⁻¹. Further, in experiment [1] (4 hr), the “Expected value λ” value was found to be 0.09968, the Number of positives is listed as 2,664 and the Positive ratio worked out at 0.09487. Also, in experiment [1] (24 hr), the “Expected value λ” value was determined as 0.1702, the Number of positives was 4,394 and the Positive ratio turned out to be 0.1565. Also, the “Fluorescence change after 2 hours” value in experiment [2] is given as 74,285 ΔRFU.
